# According to PubChem BioAssay (NCI):
#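 Cultured in 96-well plates, cells were exposed to test compound for 48 hours across five concentrations. TGI: concentration producing complete growth inhibition.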 Where a SMILES comes first, the peptide text is derived from it.
# How the values were obtained:
# Experiment in all cases: inhibition of tumour cell growth, NCI panel, 48 h
# SW-620 colon = tested on: SW-620 colon
# HOP-62 NSCLC = tested on: HOP-62 NSCLC
# SN12C renal = tested on: SN12C renal
# UACC-257 melanoma = tested on: UACC-257 melanoma
# PC-3 prostate = tested on: PC-3 prostate
# TK-10 renal = tested on: TK-10 renal
# NCI-H460 lung = tested on: NCI-H460 lung
# SK-OV-3 ovarian = tested on: SK-OV-3 ovarian
# CCRF-CEM leukemia = tested on: CCRF-CEM leukemia
# ACHN renal = tested on: ACHN renal
Structure (SMILES),TGI (SW-620 colon),TGI (HOP-62 NSCLC),TGI (SN12C renal),TGI (UACC-257 melanoma),TGI (PC-3 prostate),TGI (TK-10 renal),TGI (NCI-H460 lung),TGI (SK-OV-3 ovarian),TGI (CCRF-CEM leukemia),TGI (ACHN renal)
Cn1c2ccccc2c2c3c(c4c5ccccc5n(C)c4c21)C(=O)N(Cc1ccccc1)C3=O,> 100 µM,> 100 µM,> 100 µM,> 100 µM,> 100 µM,> 100 µM,> 100 µM,> 100 µM,> 100 µM,> 100 µM
O=C1NCN(c2ccccc2)C12CCN(CCCN1CCN(CCOC(c3ccccc3)c3ccccc3)CC1)CC2,5.95 µM,6.6 µM,7.14 µM,2.7 µM,7.69 µM,7.15 µM,7.45 µM,7.12 µM,3.59 µM,5.88 µM
CCCCCCCCCCCCCC(=O)OCC(CCS(=O)(=O)O[C@H]1CC[C@@]2(C)C(=CC[C@@H]3C2CC[C@]2(C)C(=O)CCC32)C1)OC(=O)CCCCCCCCCCCCC (stereo not given in full),> 100 µM,> 100 µM,> 100 µM,> 100 µM,> 100 µM,> 100 µM,> 100 µM,> 100 µM,> 100 µM,> 100 µM
CCOc1cc2c(cc1O)C=C[C@@H]1[C@@H]2CC[C@]2(C)[C@@H](O)CC[C@@H]12,> 35.3 µM,49.3 µM,> 77.3 µM,> 100 µM,> 100 µM,> 92 µM,12.5 µM,> 70.2 µM,> 42.5 µM,> 100 µM
CCc1cc2c(cc1C(=O)CCC(=O)O)CC1(C2)Cc2cc(CC)c(C(=O)CCC(=O)O)cc2C1,> 100 µM,> 100 µM,> 100 µM,> 100 µM,> 100 µM,> 100 µM,> 100 µM,> 100 µM,> 100 µM,> 100 µM
CCN(CC)CCOCCOCC1(c2ccc(Cl)c(Cl)c2)CCCCC1,21.9 µM,22 µM,24.9 µM,9.57 µM,23.3 µM,21.7 µM,13.3 µM,24.5 µM,14.7 µM,28.5 µM
CC1CN=C(N(C(=O)Nc2ccc(Cl)cc2)c2cccc(Cl)c2)S1 (stereo not given),> 100 µM,> 100 µM,83.9 µM,> 100 µM,> 100 µM,62.1 µM,> 100 µM,> 100 µM,> 100 µM,> 100 µM
CC(=O)NC(CS)C(=O)NC(CO)C(=O)NC(CO)C(=O)NC(Cc1c[nH]c2ccccc12)C(=O)N1CCCC1C(=O)NC(CO)C(=O)NC(Cc1c[nH]c2ccccc12)C(=O)NC(Cc1c[nH]cn1)C(=O)NC(CO)C(=O)NC(Cc1c[nH]c2ccccc12)C(=O)NCC(=O)NCC(=O)NC(C)C(=O)NC(CCC(N)=O)C(=O)NC(CCCCN)C(=O)NC(C)C(=O)NC(CCCNC(=N)N)C(=O)NC(CCCCN)C(N)=O (stereo not given) (Ac-CSSWPSWHSWGGAQKARK-NH2; configuration not given here),> 50 µM,> 50 µM,> 50 µM,19.6 µM,> 50 µM,> 50 µM,35.5 µM,> 50 µM,> 50 µM,> 50 µM
CCCNC(=O)Cn1c2c(c3ccccc31)CCCC2,> 100 µM,> 100 µM,> 100 µM,> 100 µM,> 100 µM,> 100 µM,> 100 µM,> 100 µM,> 100 µM,> 100 µM
C=CC(=C)CCC(Br)C(C)(C)Br (stereo not given),> 100 µM,> 100 µM,> 100 µM,> 100 µM,> 100 µM,> 100 µM,> 100 µM,> 100 µM,50.8 µM,> 100 µM
Cc1cc(C)n(CN(CCCCO)Cn2nc(C)cc2C)n1,63 µM,47.6 µM,67 µM,80 µM,57.7 µM,> 100 µM,> 100 µM,> 100 µM,1.74 µM,39.4 µM
Cc1ccc(F)c2[nH]c(-c3ccccc3)cc(=O)c12,> 100 µM,> 100 µM,> 100 µM,> 100 µM,> 100 µM,> 100 µM,> 100 µM,> 100 µM,> 100 µM,> 100 µM
O=S(=O)(O)c1ccc(N=Nc2ccc(N=Nc3c(O)ccc4ccc(S(=O)(=O)O)cc34)cc2)cc1,> 100 µM,> 100 µM,> 100 µM,> 100 µM,> 100 µM,> 100 µM,> 100 µM,> 100 µM,> 100 µM,> 100 µM
O=P(O)(O)c1ccc2c(c1)OCCOCCOCCOCCO2,> 100 µM,> 100 µM,> 100 µM,> 100 µM,> 100 µM,> 100 µM,> 100 µM,> 100 µM,> 100 µM,> 100 µM
COc1c(C)c(C/C=C(\C)CC/C=C(\C)CC/C=C(\C)CC/C=C(\C)CCC=C(C)C)c(OC)c(OC)c1OC,> 100 µM,37.6 µM,52.7 µM,> 100 µM,> 100 µM,69 µM,23.2 µM,> 100 µM,53.8 µM,33.3 µM
COC(=O)c1ccc(Oc2nc3ccc(C(F)(F)F)cc3nc2-c2ccccc2)cc1,> 100 µM,> 100 µM,> 100 µM,> 100 µM,> 100 µM,> 100 µM,> 100 µM,> 100 µM,> 100 µM,> 100 µM
CC1(C)CC[C@]2(C)[C@@H](O)C[C@]3(C)C(=CC[C@@H]4[C@@]5(C)CC[C@H](O)C(C)(C)[C@@H]5CC[C@]43C)[C@@H]2C1,> 100 µM,> 100 µM,> 100 µM,> 100 µM,> 100 µM,93.2 µM,> 100 µM,40.7 µM,> 100 µM,> 100 µM
